Assay results: US6914045B2, “Glycopeptide antibiotics” (Wyeth Holdings Corporation, priority 2001, dated 2005)
In brackets after ≈: the same amount, converted by molar mass.

How the values were obtained:
Enterococcus sp. = assay: in vitro antibacterial evaluation, MIC by broth dilution; format: cell-based; details: broth dilution, 18 hours at 35° C.
In short: (§1)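 Test organisms, which included recent clinical isolates resistant to methicillin, penicillin and/or vancomycin, were inoculated at 5×10^5 CFU/mL into Muller-Hinton II […] containing antibiotic at 64-0.06 μg/mL. Minimum inhibitory concentrations were then read as the lowest level inhibiting growth.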

Escherichia coli = assay: as above; format: cell-based
In short: as §1

Staphylococcus sp. = assay: as above; format: cell-based; details: broth dilution, 18 hours at 35° C.; for MIC Staphylococcus aureus (GC 1131): strain GC 1131
In short: as §1

Streptococcus sp. = assay: as above; format: cell-based; details: broth dilution, 18 hours at 35° C.
In short: as §1

[1] = clinical pathology (serum clinical chemistry) in mice; format: in vivo; details: CD-1 mice, 20 mg/kg intravenously daily for 9 days, sera day 10
Description: 20-day-old CD-1 mice were divided into a vehicle control group (5 mice) and a treatment group (5 mice). Samples of glycopeptide antibiotics were administered at 20 mg/kg intravenously daily for 9 days.

[2] = anatomic pathology (histopathology of heart and kidney) in mice; format: in vivo; details: CD-1 mice, 20 mg/kg intravenously daily for 9 days, necropsy day 10, microscopic histopathology
Description: Samples of tissues from necropsied mice were formalin-fixed, paraffin-embedded, sectioned, stained with hematoxylin and eosin, and examined microscopically. Histopathologic findings were recorded. These findings were subjectively graded on a scale corresponding to slight, mild, moderate, marked and severe as compared to untreated controls.

CC(c1ccccc1)C1NC(=O)CNC(=O)C(CO)NC(=O)C(C(O)C2CNC(=N)N2C2OC(CO)C(O)C(O)C2O)NC(=O)C(C(O)C2CNC(=N)N2)NC(=O)C(Cc2ccc(OC3OC(CO)C(OC4OC5COC(c6ccc(C(=O)O)cc6)OC5C(O)C4O)C(O)C3O)cc2)NC1=O (stereo not drawn) [Example 141, Cyclo[glycyl-β-methylphenylalanyl-O-[4-O-[4,6-O-(4-carboxybenzylidene)hexopyranosyl]-hexopyranosyl]tyrosyl-3-(2-iminoimidazolidin-4-yl)seryl-3-(3-hexopyranosyl-2-iminoimidazolidin-4-yl)serylseryl]]
MIC Enterococcus avium (GC 4558) (Enterococcus sp.; Enterococcus avium (GC 4558)): >64 µg/mL | MIC Enterococcus faecalis (ATCC 29212) (Enterococcus sp.; Enterococcus faecalis (ATCC 29212)): >64 µg/mL | MIC Enterococcus faecalis (GC 2242) (Enterococcus sp.; Enterococcus faecalis (GC 2242)): >64 µg/mL | MIC Enterococcus faecalis (GC 2691) (Enterococcus sp.; Enterococcus faecalis (GC 2691)): >64 µg/mL | MIC Enterococcus faecalis (GC 3059) (Enterococcus sp.; Enterococcus faecalis (GC 3059)): >64 µg/mL | MIC Enterococcus faecalis (GC 4552) (Enterococcus sp.; Enterococcus faecalis (GC 4552)): >64 µg/mL | MIC Enterococcus faecalis (GC 4553) (Enterococcus sp.; Enterococcus faecalis (GC 4553)): >64 µg/mL | MIC Enterococcus faecalis (GC 4554) (Enterococcus sp.; Enterococcus faecalis (GC 4554)): >64 µg/mL | MIC Enterococcus faecalis (GC 6189) (Enterococcus sp.; Enterococcus faecalis (GC 6189)): >64 µg/mL | MIC Enterococcus faecium (GC 2243) (Enterococcus sp.; Enterococcus faecium (GC 2243)): >64 µg/mL | MIC Enterococcus faecium (GC 4556) (Enterococcus sp.; Enterococcus faecium (GC 4556)): >64 µg/mL | MIC Enterococcus faecium (GC 4557) (Enterococcus sp.; Enterococcus faecium (GC 4557)): 64 µg/mL (≈ 44.8 µM) | MIC Enterococcus faecalis (ATCC 29212) (Enterococcus sp.; strain ATCC 29212): >64 µg/mL | MIC Enterococcus faecalis (GC 2242) (Enterococcus sp.; strain GC 2242): >64 µg/mL | MIC Enterococcus faecium (GC 2243) (Enterococcus sp.; strain GC 2243): >64 µg/mL | MIC Enterococcus faecalis (GC 2691) (Enterococcus sp.; strain GC 2691): >64 µg/mL | MIC Enterococcus faecalis (GC 3059) (Enterococcus sp.; strain GC 3059): >64 µg/mL | MIC Enterococcus faecalis (GC 4552) (Enterococcus sp.; strain GC 4552): >64 µg/mL | MIC Enterococcus faecalis (GC 4553) (Enterococcus sp.; strain GC 4553): >64 µg/mL | MIC Enterococcus faecalis (GC 4554) (Enterococcus sp.; strain GC 4554): >64 µg/mL | MIC Enterococcus faecium (GC 4556) (Enterococcus sp.; strain GC 4556): >64 µg/mL | MIC Enterococcus faecium (GC 4557) (Enterococcus sp.; strain GC 4557): 64 µg/mL (≈ 44.8 µM) | MIC Enterococcus avium (GC 4558) (Enterococcus sp.; strain GC 4558): >64 µg/mL | MIC Enterococcus faecalis (GC 6189) (Enterococcus sp.; strain GC 6189): >64 µg/mL | MIC Escherichia coli (ATCC 25922) (Escherichia coli; strain ATCC 25922, 18 hours at 35° C.): >64 µg/mL | MIC Escherichia coli (GC 4559) (Escherichia coli; strain GC 4559, 18 hours at 35° C.): >64 µg/mL | MIC Escherichia coli (GC 4560) (Escherichia coli; strain GC 4560, 18 hours at 35° C.): >64 µg/mL | MIC Staphylococcus aureus (GC 1131) (Staphylococcus sp.; inoculum 5×10^5 CFU/mL): >64 µg/mL | MIC Staphylococcus aureus (ATCC 29213) (Staphylococcus sp.; strain ATCC 29213): >64 µg/mL | MIC Staphylococcus aureus (GC 1131) (Staphylococcus sp.): >64 µg/mL | MIC Staphylococcus aureus (GC 3051) (Staphylococcus sp.; strain GC 3051): >64 µg/mL | MIC Staphylococcus aureus (GC 3053) (Staphylococcus sp.; strain GC 3053): >64 µg/mL | MIC Staphylococcus aureus (GC 4541) (Staphylococcus sp.; strain GC 4541): >64 µg/mL | MIC Staphylococcus aureus (GC 4542) (Staphylococcus sp.; strain GC 4542): >64 µg/mL | MIC Staphylococcus aureus-SMITH (GC 4543) (Staphylococcus sp.; strain GC 4543): >64 µg/mL | MIC Staphylococcus aureus (GC 4544) (Staphylococcus sp.; strain GC 4544): >64 µg/mL | MIC Staphylococcus aureus (GC 4545) (Staphylococcus sp.; strain GC 4545): >64 µg/mL | MIC Staphylococcus haemolyticus (GC 4546) (Staphylococcus sp.; strain GC 4546): >64 µg/mL | MIC Coagulase Negative Staphylococcus (GC 4547) (Staphylococcus sp.; strain GC 4547): >64 µg/mL | MIC Coagulase Negative Staphylococcus (GC 4548) (Staphylococcus sp.; strain GC 4548): >64 µg/mL | MIC Coagulase Negative Staphylococcus (GC 4549) (Staphylococcus sp.; strain GC 4549): >64 µg/mL | MIC Coagulase Negative Staphylococcus (GC 4551) (Staphylococcus sp.; strain GC 4551): >64 µg/mL | MIC Coagulase Negative Staphylococcus (GC 6257) (Staphylococcus sp.; strain GC 6257): >64 µg/mL | MIC Staphylococcus aureus-SMITH (GC 4543) (Staphylococcus sp.; strain SMITH GC 4543): >64 µg/mL | MIC Streptococcus agalactiae (GC 4564) (Streptococcus sp.; Streptococcus agalactiae (GC 4564)): >64 µg/mL | MIC Streptococcus pneumoniae (ATCC 6301) (Streptococcus sp.; Streptococcus pneumoniae (ATCC 6301)): >64 µg/mL | MIC Streptococcus pneumoniae (GC 1894) (Streptococcus sp.; Streptococcus pneumoniae (GC 1894)): >64 µg/mL | MIC Streptococcus pneumoniae (GC 4565) (Streptococcus sp.; Streptococcus pneumoniae (GC 4565)): >64 µg/mL | MIC Streptococcus pyogenes (GC 4563) (Streptococcus sp.; Streptococcus pyogenes (GC 4563)): >64 µg/mL | MIC Streptococcus pneumoniae (ATCC 6301) (Streptococcus sp.; strain ATCC 6301): >64 µg/mL | MIC Streptococcus pneumoniae (GC 1894) (Streptococcus sp.; strain GC 1894): >64 µg/mL | MIC Streptococcus pyogenes (GC 4563) (Streptococcus sp.; strain GC 4563): >64 µg/mL | MIC Streptococcus agalactiae (GC 4564) (Streptococcus sp.; strain GC 4564): >64 µg/mL | MIC Streptococcus pneumoniae (GC 4565) (Streptococcus sp.; strain GC 4565): >64 µg/mL | Clinical Chemistry (Day 10) % of Control, BUN [1]: +308% | Clinical Chemistry (Day 10) % of Control, Creatinine [1]: +113% | Anatomical Pathology (Day 10), Heart [2]: 0 | Anatomical Pathology (Day 10), Kidney [2]: +++
